We go through 19 compounds from ChEMBL document CHEMBL1137903 (Bioorg Med Chem Lett, 2004).

Data set [1] deals with T1, Melatonin receptor type 1A (Homo sapiens, UniProt P48039). The data set can be described thus: Inhibition of 2-[125I]iodomelatonin binding to membrane preparations of NIH3T3 cells stably expressing human Melatonin receptor type 1A. In kind it is cell membranes.
In data set [2] the target is T2, Melatonin receptor type 1B (Homo sapiens, UniProt P49286).
T2 sequence (P49286 whole entry): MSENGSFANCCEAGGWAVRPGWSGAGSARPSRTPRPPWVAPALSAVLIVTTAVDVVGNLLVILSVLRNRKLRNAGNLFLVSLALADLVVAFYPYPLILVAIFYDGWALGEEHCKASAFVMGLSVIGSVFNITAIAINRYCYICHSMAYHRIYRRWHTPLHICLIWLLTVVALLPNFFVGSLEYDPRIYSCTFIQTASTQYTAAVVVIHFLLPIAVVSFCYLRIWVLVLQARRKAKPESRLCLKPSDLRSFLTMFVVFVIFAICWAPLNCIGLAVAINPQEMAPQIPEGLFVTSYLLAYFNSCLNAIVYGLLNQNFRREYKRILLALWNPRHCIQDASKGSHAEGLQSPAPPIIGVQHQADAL
The data set can be described thus: Inhibition of 2-[125I]iodomelatonin binding to membrane preparations of NIH3T3 cells stably expressing human Melatonin receptor type 1B. In kind it is cell membranes.

Data set [3] in a line: Volume of distribution in rats after the administration of 1 mg/kg i.v. dose. The data set is classed as ADME, organism-based. The arrangement: dose 1 mg/kg, route intravenous. Particulars: rat, in vivo, iv.
Data set [4] in a line: Bioavailability in rat (dose 1 mg/kg p.o.). In kind it is ADME, organism-based. Particulars: in vivo, po.
Data set [5] has as its target T2, Melatonin receptor type 1B. The data set can be described thus: Agonist activity towards human Melatonin receptor type 1B was determined by its ability to inhibit forskolin stimulated cAMP accumulation. The data set is classed as functional. On the technique in general: cAMP levels reflect the balance of adenylyl cyclase and phosphodiesterase activity.
Data set [6] concerns the target T1, Melatonin receptor type 1A. The data set is described as follows: Intrinsic activity towards human Melatonin receptor type 1A relative to melatonin.
Data set [7] in a line: Half-life in rats after the administration of 1 mg/kg i.v. dose. In kind it is ADME, organism-based. The arrangement: dose 1 mg/kg, route intravenous. Particulars: rat, in vivo, iv.
Data set [8] can be described thus: Clearance in rats after the administration of 1 mg/kg i.v. dose. Particulars: rat, in vivo, iv. The data set is classed as ADME, organism-based. The arrangement: dose 1 mg/kg, route intravenous.
Data set [9] has as its target T1, Melatonin receptor type 1A. The data set can be described thus: Agonist activity towards human Melatonin receptor type 1A was determined by its ability to inhibit forskolin stimulated cAMP accumulation. The data set is classed as functional.

T1 sequence (P48039 whole entry): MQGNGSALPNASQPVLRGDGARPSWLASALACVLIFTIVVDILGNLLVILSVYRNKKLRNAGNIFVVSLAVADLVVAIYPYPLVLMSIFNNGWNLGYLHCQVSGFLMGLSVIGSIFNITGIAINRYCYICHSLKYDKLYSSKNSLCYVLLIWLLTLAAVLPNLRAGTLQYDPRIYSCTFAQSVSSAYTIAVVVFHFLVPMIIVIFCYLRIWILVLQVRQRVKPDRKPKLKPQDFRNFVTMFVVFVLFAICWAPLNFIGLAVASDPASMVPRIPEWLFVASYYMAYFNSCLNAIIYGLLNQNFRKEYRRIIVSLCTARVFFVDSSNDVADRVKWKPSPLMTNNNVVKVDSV

`CC(=O)NCCCc1cccc2oc(CCCCc3ccccc3)cc12`: the results for the Ki in [1] and in [2] were 19 nM and 127 nM, respectively.

For `CCNC(=O)N[C@H]1CCN(c2cccc3oc(CCCCc4ccccc4)cc23)C1`, the Ki (commonly the equilibrium dissociation constant of an inhibitor or competing ligand from its target) in data set [1] worked out at 39 nM; in data set [2], 98 nM.

Turning to `CCCC(=O)NC[C@@H]1CC1c1cccc2oc(CCCCc3ccccc3)cc12` (some centres undefined), the Ki in data set [1] and in data set [2] was 10 nM in each case.

Regarding `CCCC(=O)N[C@H]1CCN(c2cccc3oc(CCCCc4ccccc4)cc23)C1`, the Ki amounted to 11 nM in [1] and 7.2 nM in [2].

`CC(C)C(=O)N[C@H]1CCN(c2cccc3oc(CCCCc4ccccc4)cc23)C1`: the Ki in [1] came to 105 nM; in data set [2], 162 nM.

With `CCC(=O)N[C@H]1CCN(c2cccc3oc(CCCCc4ccccc4)cc23)C1`, the Ki in [1] came to 2.4 nM; in [2], 6 nM.

For the compound `O=C(NCCCc1cccc2oc(CCCCc3ccccc3)cc12)C1CC1`, the figures for the Ki in data set [1] and in [2] were 6 nM and 95 nM, respectively.

With `CC(=O)NC[C@@H]1CC1c1cccc2oc(CCCCc3ccccc3)cc12` (some centres undefined), the values for the Ki in [1] and in data set [2] were 2.6 nM and 10 nM, respectively. The Vd (commonly a proportionality between amount in the body and measured concentration, not a real space) in [3] is 0.557 L/kg. The bioavailability (commonly dose-corrected exposure relative to a reference, in per cent) in [4] was 90%. Further, the EC50 (as a rule, the midpoint of the concentration-response curve) in data set [5] is 21 nM; in data set [9], 0.6 nM. Also, in data set [6], the Activity is 0.97. For the same compound, the half-life (commonly the time in which the quantity being followed falls by half) in [7] is 3.8 h. In addition, the clearance (as a rule, the rate of elimination divided by the concentration) in [8] amounted to 27.5 mL/min/kg.

Consider `CCCC(=O)NCCCc1cccc2oc(CCCCc3ccccc3)cc12`, for which the Ki in data set [1] came out at 16 nM; in data set [2], 82 nM.

`COc1ccc2[nH]cc(CCNC(C)=O)c2c1` [MELATONIN]: the bioavailability in data set [4] amounted to 24%.

Regarding `CC(C)C(=O)NCCCc1cccc2oc(CCCCc3ccccc3)cc12`, the results for the Ki in [1] and in data set [2] were 3.7 nM and 83 nM, respectively.

Take `CCNC(=O)NCCCc1cccc2oc(CCCCc3ccccc3)cc12`: the Ki in data set [1] was found to be 21 nM; in [2], 52 nM.

`CCC(=O)NCCCc1cccc2oc(CCCCc3ccccc3)cc12`: the Ki came to 7.5 nM in data set [1] and 60 nM in [2].

Turning to `O=C(NC[C@@H]1CC1c1cccc2oc(CCCCc3ccccc3)cc12)C1CC1` (some centres undefined), the Ki in [1] was 16 nM; in [2], 33 nM.

Regarding `CC(C)C(=O)NC[C@@H]1CC1c1cccc2oc(CCCCc3ccccc3)cc12` (some centres undefined), the Ki in data set [1] came out at 23 nM; in data set [2] it was 54 nM.

On to `O=C(N[C@H]1CCN(c2cccc3oc(CCCCc4ccccc4)cc23)C1)C1CC1`, for which the Ki in data set [1] came out at 42 nM; in [2], 152 nM.

Turning to `CCC(=O)NC[C@@H]1CC1c1cccc2oc(CCCCc3ccccc3)cc12` (some centres undefined), the Ki in data set [1] was determined as 2.1 nM; in [2], 2.8 nM.

For the compound `CCNC(=O)NC[C@@H]1C[C@H]1c1cccc2oc(CCCCc3ccccc3)cc12`, the Ki in data set [1] worked out at 33 nM; in data set [2], 90 nM.

Regarding `CC(=O)N[C@H]1CCN(c2cccc3oc(CCCCc4ccccc4)cc23)C1`, the Ki in [1] worked out at 22 nM; in [2], 14 nM.
